Test results as given in patent publication US8524481B2, “Hide processing methods and compositions” (priority 2010, dated 2013).
Structures can show the parent of a compound that is named as a salt. Where two headings read alike, the source gives them in different places. Square brackets hold non-standard residues; d marks the D form. Peptide text beside a SMILES is read from it. * marks the point of attachment. Sta = CC(C)C[C@H](N)[C@@H](O)CC(=O)O; Isovaleryl = CC(C)CC(=O)*

Legend:
[1] = system: protease from strain SRC002 (MTCC 5564); experiment: Effect of inhibitors, metals and chemicals on protease activity; type: biochemical, Pseudomonas aeruginosa; settings: for effect on protease activity: EGTA 10 mM, 1,10 Phenanthrolin 2 mM, Phosphoramidone 500 μg/ml, Antipain 20 μM, Bestatin 50 μg/ml, Chymostatin 20 μM, E-64 2 μM, Pepstatin 1 μM, Ebelacetone-B 1 μM
Strain B/GZN (MTCC 5566) = experiment: Antibiotic sensitivity by disk diffusion method, Strain B; type: cell-based, Pseudomonas aeruginosa; settings: Himedia antibiotic discs, Mueller Hinton Agar, 37° C. overnight
Method: (§1) The sensitivity of the strains against different antibiotics was determined by disk diffusion method using commercially available (Himedia) antibiotic discs. The representative of each group of antibiotic had been tested. The antibiotics used were Ampicillin (A10), Cephadroxil (Cq30), Chloramphenicol (C30), Cloxacillin (Cx30), Cephotaxime (Ce30), Ceftazidime (Ca30), Ciprofloxacin (Cf5), Doxycycline Hydrochloride (Do30), Gentamicin (G10), Metronidazole (Mt4), Neomycin (N30), Norfloxacin (Nx10), Polymyxin B (Pb100), Rifampicin (R15), Roxithromycin (Ro30), Tetracycline (T30), Trimethoprin (Tr30), Vancomycin (Va30). The concentrations of the antibiotics in microgram per disc were mentioned in parenthesis indicated above except for Polymyxin B where it is 100 units. Mueller Hinton Agar medium (Himedia-M173) was used to grow each of the microorganisms for antibiotic sensitivity test. The log phase culture of each isolate was diluted 100 times and poured on Mueller Hinton Agar (MHA) plates. It was swirled uniformly to distribute the culture throughout the plate. After waiting for 30 mins, the cultures were carefully pipetted out from the plates and the plates were allowed to dry. Then the antibiotic disks were placed onto the MHA surface using the dispenser provided with the antibiotic discs. The plates were incubated at 37° C. for overnight. The zones of inhibition were measured. The results were evaluated using National Committee for Clinical Laboratory Standard's (NCCLS) chart provided with the antibiotic discs by Himedia. The assay was repeated three times for each organism.

[2] = system: Strain A/SRC002 (MTCC 5564); experiment: Antibiotic sensitivity by disk diffusion method, Strain A; type: cell-based, Pseudomonas aeruginosa; settings: Himedia antibiotic discs, Mueller Hinton Agar, 37° C. overnight
Method: as §1

[3] = concentration not given, crude enzyme for the partial inhibitors

c1cnc2c(c1)ccc1cccnc12 [1,10 Phenanthrolin]
effect on protease activity [1]: completely inhibited | effect on enzyme activity [1, 3]: completely inhibited

[Ag] [Ag]
enzyme activity retained in the presence of metal ([1]; concentration not given): 76%

[Al] [Al]
enzyme activity retained in the presence of metal ([1]; concentration not given): 70%

CC1(C)S[C@@H]2[C@H](NC(=O)[C@H](N)c3ccccc3)C(=O)N2[C@H]1C(=O)O [Ampicillin]
antibiotic sensitivity (zones of inhibition evaluated by NCCLS chart) (Strain B/GZN (MTCC 5566)): resistant | antibiotic sensitivity (zones of inhibition evaluated by NCCLS chart) [2]: resistant

CC(C)C[C@H](NC(=O)[C@@H](O)[C@H](N)Cc1ccccc1)C(=O)O [Bestatin]
effect on protease activity [1]: almost no effect | effect on enzyme activity [1, 3]: no inhibitory effect

[Cd] [Cd]
enzyme activity retained in the presence of metal ([1]; concentration not given): 34%

CC(C)(O/N=C(\C(=O)N[C@@H]1C(=O)N2C(C(=O)[O-])=C(C[n+]3ccccc3)CS[C@H]12)c1csc(N)n1)C(=O)O [Ceftazidime]
antibiotic sensitivity (zones of inhibition evaluated by NCCLS chart) (Strain B/GZN (MTCC 5566)): intermediate response | antibiotic sensitivity (zones of inhibition evaluated by NCCLS chart) [2]: resistant

CC1=C(C(=O)O)N2C(=O)[C@@H](NC(=O)[C@H](N)c3ccc(O)cc3)[C@H]2SC1 [Cephadroxil]
antibiotic sensitivity (zones of inhibition evaluated by NCCLS chart) [2]: resistant

CO/N=C(\C(=O)N[C@@H]1C(=O)N2C(C(=O)O)=C(COC(C)=O)CS[C@H]12)c1csc(N)n1 [Cephotaxime]
antibiotic sensitivity (zones of inhibition evaluated by NCCLS chart) (Strain B/GZN (MTCC 5566)): intermediate response | antibiotic sensitivity (zones of inhibition evaluated by NCCLS chart) [2]: resistant

CC(C)C[C@H](NC(=O)[C@@H](NC(=O)N[C@@H](Cc1ccccc1)C(=O)O)[C@@H]1CCN=C(N)N1)C(=O)N[C@H](C=O)Cc1ccccc1 [Chymostatin]
effect on protease activity [1]: almost no effect | effect on enzyme activity [1, 3]: no inhibitory effect

O=C(O)c1cn(C2CC2)c2cc(N3CCNCC3)c(F)cc2c1=O [Ciprofloxacin]
antibiotic sensitivity (zones of inhibition evaluated by NCCLS chart) (Strain B/GZN (MTCC 5566)): resistant | antibiotic sensitivity (zones of inhibition evaluated by NCCLS chart) [2]: sensitive

O=C(N[C@H](CO)[C@H](O)c1ccc([N+](=O)[O-])cc1)C(Cl)Cl [Cloramphenicol, Chloramphenicol]
antibiotic sensitivity (zones of inhibition evaluated by NCCLS chart) (Strain B/GZN (MTCC 5566)): intermediate response | antibiotic sensitivity (zones of inhibition evaluated by NCCLS chart) [2]: resistant

Cc1onc(-c2ccccc2Cl)c1C(=O)N[C@@H]1C(=O)N2[C@@H]1SC(C)(C)[C@@H]2C(=O)O [Cloxacillin]
antibiotic sensitivity (zones of inhibition evaluated by NCCLS chart) [2]: resistant

[Co] [Co]
enzyme activity retained in the presence of metal ([1]; concentration not given): 82%

[Cr] [Cr]
enzyme activity retained in the presence of metal [1]: up to 90%

[Cu] [Cu]
enzyme activity retained in the presence of metal ([1]; concentration not given): 50%

C[C@H]1c2cccc(O)c2C(=O)C2=C(O)[C@]3(O)C(=O)C(C(N)=O)=C(O)[C@@H](N(C)C)[C@@H]3[C@@H](O)[C@@H]21 [Doxycycline hydrochloride, Doxycycline Hydrochloride]
antibiotic sensitivity (zones of inhibition evaluated by NCCLS chart) (Strain B/GZN (MTCC 5566)): resistant | antibiotic sensitivity (zones of inhibition evaluated by NCCLS chart) [2]: resistant

O=C(O)CN(CCN(CC(=O)O)CC(=O)O)CC(=O)O [EDTA]
effect on enzyme activity [1]: inactivated

O=C(O)CN(CCOCCOCCN(CC(=O)O)CC(=O)O)CC(=O)O [EGTA]
effect on protease activity [1]: completely inhibited | effect on enzyme activity [1, 3]: completely inhibited

CC[C@@H](C)[C@@H](O)[C@H](C)C(=O)[C@H](C)/C=C(\C)C[C@H](C)[C@@H]1OC(=O)[C@H]1CC [Ebelacetone-B]
effect on protease activity [1]: almost no effect | effect on enzyme activity [1, 3]: no inhibitory effect

[Hg] [Hg]
effect on enzyme activity [1, 3]: complete inhibition

Cc1ncc([N+](=O)[O-])n1CCO [Metronidazole]
antibiotic sensitivity (zones of inhibition evaluated by NCCLS chart) [2]: resistant

NC[C@@H]1O[C@H](O[C@H]2[C@@H](O)[C@H](O[C@@H]3[C@@H](O)[C@H](N)C[C@H](N)[C@H]3O[C@H]3O[C@H](CN)[C@@H](O)[C@H](O)[C@H]3N)O[C@@H]2CO)[C@H](N)[C@@H](O)[C@@H]1O [Neomycine, Neomycin]
antibiotic sensitivity (zones of inhibition evaluated by NCCLS chart) (Strain B/GZN (MTCC 5566)): intermediate response | antibiotic sensitivity (zones of inhibition evaluated by NCCLS chart) [2]: sensitive

[Ni] [Ni]
enzyme activity retained in the presence of metal ([1]; concentration not given): 70%

CCn1cc(C(=O)O)c(=O)c2cc(F)c(N3CCNCC3)cc21 [Norfloxacine, Norfloxacin]
antibiotic sensitivity (zones of inhibition evaluated by NCCLS chart) (Strain B/GZN (MTCC 5566)): resistant | antibiotic sensitivity (zones of inhibition evaluated by NCCLS chart) [2]: sensitive

[Pb] [Pb]
enzyme activity retained in the presence of metal ([1]; concentration not given): 50%

CC(C)CC(=O)N[C@H](C(=O)N[C@H](C(=O)N[C@@H](CC(C)C)[C@@H](O)CC(=O)N[C@@H](C)C(=O)N[C@@H](CC(C)C)[C@@H](O)CC(=O)O)C(C)C)C(C)C [Pepstatin] (Isovaleryl-VV[Sta]A[Sta]-OH)
effect on protease activity [1]: almost no effect | effect on enzyme activity [1, 3]: no inhibitory effect

CC(C)C[C@H](NP(=O)(O)O[C@@H]1O[C@@H](C)[C@H](O)[C@@H](O)[C@H]1O)C(=O)N[C@@H](Cc1c[nH]c2ccccc12)C(=O)O [Phosphoramidone]
effect on protease activity [1]: completely inhibited | effect on enzyme activity [1, 3]: completely inhibited

CC(C)C[C@H](NC(=O)[C@H]1O[C@@H]1C(=O)O)C(=O)NCCCCN=C(N)N [Strain E-64, E-64]
effect on protease activity [1]: almost no effect | effect on enzyme activity [1, 3]: no inhibitory effect

CN(C)[C@@H]1C(=O)C(C(N)=O)=C(O)[C@@]2(O)C(=O)C3=C(O)c4c(O)cccc4[C@@](C)(O)[C@H]3C[C@@H]12 [Tetracyclin, Tetracycline]
antibiotic sensitivity (zones of inhibition evaluated by NCCLS chart) (Strain B/GZN (MTCC 5566)): resistant | antibiotic sensitivity (zones of inhibition evaluated by NCCLS chart) [2]: resistant

COc1cc(Cc2cnc(N)nc2N)cc(OC)c1OC [Trimethoprim]
antibiotic sensitivity (zones of inhibition evaluated by NCCLS chart) (Strain B/GZN (MTCC 5566)): intermediate response | antibiotic sensitivity (zones of inhibition evaluated by NCCLS chart) [2]: resistant

CN[C@H](CC(C)C)C(=O)N[C@H]1C(=O)N[C@@H](CC(N)=O)C(=O)N[C@H]2C(=O)N[C@H]3C(=O)N[C@H](C(=O)N[C@H](C(=O)O)c4cc(O)cc(O)c4-c4cc3ccc4O)[C@H](O)c3ccc(c(Cl)c3)Oc3cc2cc(c3O[C@@H]2O[C@H](CO)[C@@H](O)[C@H](O)[C@H]2O[C@H]2C[C@](C)(N)[C@H](O)[C@H](C)O2)Oc2ccc(cc2Cl)[C@H]1O [Vancomycin]
antibiotic sensitivity (zones of inhibition evaluated by NCCLS chart) (Strain B/GZN (MTCC 5566)): resistant | antibiotic sensitivity (zones of inhibition evaluated by NCCLS chart) [2]: resistant

[Zn] [Zn]
enzyme activity retained in the presence of metal ([1]; concentration not given): 34%

OCCS [beta-merceptoethanol]
effect on enzyme activity [1, 3]: partially inhibited

OO [hydrogen peroxide]
effect on enzyme activity [1, 3]: partially inhibited

Gentamicin [Gentamycine]
antibiotic sensitivity (zones of inhibition evaluated by NCCLS chart) (Strain B/GZN (MTCC 5566)): sensitive | antibiotic sensitivity (zones of inhibition evaluated by NCCLS chart) [2]: resistant

Polymyxin B [PolymyxinB]
antibiotic sensitivity (zones of inhibition evaluated by NCCLS chart) (Strain B/GZN (MTCC 5566)): resistant | antibiotic sensitivity (zones of inhibition evaluated by NCCLS chart) [2]: resistant

Triton X 100
effect on enzyme activity [1, 3]: partially inhibited
